{"source": "PubChem BioAssay AID1259411", "about": "(Chemical Carcinogenesis Research Information System (CCRIS), 2018)", "test_system": "rodent carcinogenicity bioassays, tumor incidence", "assay": "CCRIS carcinogenicity studies", "conditions": "Dose: 0, Dose: 0", "in_short": "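Archive of carcinogenicity, mutagenicity, tumor promotion and tumor inhibition results drawn from journals, NCI reports and other sources, expert-reviewed; covers 1985-2011 and is no longer updated.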", "note": "The source made the active and inactive calls. No rule for the calls is given here."}
{"smiles": "CC1=CC(=O)CC(C)(C)C1", "values": [{"measurement": "carcinogen call", "setting": "Species: MOUSE, Strain/Sex: B6C3F1/FEMALE, Route: GAVAGE, 250, 500 MG/KG IN CORN OIL 5 D/WK FOR 103 WK (STUDY DURATION: 105 WK), 250, 500 MG/KG IN CORN OIL 5 D/WK FOR 103 WK (STUDY DURATION: 105 WK)", "result": "inactive; negative"}, {"measurement": "carcinogen call", "setting": "Species: MOUSE, Strain/Sex: B6C3F1/MALE, Route: GAVAGE, 250, 500 MG/KG IN CORN OIL 5 D/WK FOR 103 WK (STUDY DURATION: 105 WK), 250, 500 MG/KG IN CORN OIL 5 D/WK FOR 103 WK (STUDY DURATION: 105 WK), Tumor Site: Type of Lesion: LIVER: HEPATOCELLULAR ADENOMA OR CARCINOMA, INTEGUMENTARY SYSTEM: MESENCHYMAL TUMOR, HEMATOPOIETIC SYSTEM: MALIGNANT LYM, Tumor Site: Type of Lesion: LIVER: HEPATOCELLULAR ADENOMA OR CARCINOMA, INTEGUMENTARY SYSTEM: MESENCHYMAL TUMOR, HEMATOPOIETIC SYSTEM: MALIGNANT LYM", "result": "equivocal"}, {"measurement": "carcinogen call", "setting": "Species: RAT, Strain/Sex: F344/FEMALE, Route: GAVAGE, 250, 500 MG/KG IN CORN OIL 5 D/WK FOR 103 WK (STUDY DURATION: 105 WK), 250, 500 MG/KG IN CORN OIL 5 D/WK FOR 103 WK (STUDY DURATION: 105 WK)", "result": "inactive; negative"}, {"measurement": "carcinogen call", "setting": "Species: RAT, Strain/Sex: F344/MALE, Route: GAVAGE, 250, 500 MG/KG IN CORN OIL 5 D/WK FOR 103 WK (STUDY DURATION: 105 WK), 250, 500 MG/KG IN CORN OIL 5 D/WK FOR 103 WK (STUDY DURATION: 105 WK), Tumor Site: Type of Lesion: PREPUTIAL GLAND: CARCINOMA, KIDNEY: TUBULAR CELL ADENOMA OR ADENOCARCINOMA, PANCREAS: ACINAR CELL ADENOMA, Tumor Site: Type of Lesion: PREPUTIAL GLAND: CARCINOMA, KIDNEY: TUBULAR CELL ADENOMA OR ADENOCARCINOMA, PANCREAS: ACINAR CELL ADENOMA", "result": "active; positive"}]}
{"smiles": "CCc1cc(Cc2cc(CC)cc(C(C)(C)C)c2O)c(O)c(C(C)(C)C)c1", "values": [{"measurement": "carcinogen call", "setting": "Species: RAT, Strain/Sex: WISTAR/MALE, Route: ORAL, 0.03, 0.1, 0.3% IN DIET FOR DURATION OF STUDY (STUDY DURATION: 18 MO), 0.03, 0.1, 0.3% IN DIET FOR DURATION OF STUDY (STUDY DURATION: 18 MO)", "result": "inactive; negative"}]}
{"smiles": "O=P(OCCCl)(OCCCl)OCCCl", "values": [{"measurement": "carcinogen call", "setting": "Species: MOUSE, Strain/Sex: B6C3F1/FEMALE, Route: GAVAGE, 175, 350 MG/KG IN CORN OIL 5 D/WK FOR 103 (STUDY DURATION: 104 WK), 175, 350 MG/KG IN CORN OIL 5 D/WK FOR 103 (STUDY DURATION: 104 WK), Tumor Site: Type of Lesion: HARDERIAN GLAND: ADENOMA OR CARCINOMA", "result": "equivocal"}, {"measurement": "carcinogen call", "setting": "Species: MOUSE, Strain/Sex: B6C3F1/MALE, Route: GAVAGE, 175, 350 MG/KG IN CORN OIL 5 D/WK FOR 103 (STUDY DURATION: 104 WK), 175, 350 MG/KG IN CORN OIL 5 D/WK FOR 103 (STUDY DURATION: 104 WK), Tumor Site: Type of Lesion: KIDNEY (RENAL TUBULE): ADENOMA, CARCINOMA", "result": "equivocal"}, {"measurement": "carcinogen call", "setting": "Species: MOUSE, Strain/Sex: DDY/FEMALE, Route: ORAL, 0.012, 0.06, 0.3, 1.5% IN DIET FOR 18 MO (STUDY DURATION: 18 MO), 0.012, 0.06, 0.3, 1.5% IN DIET FOR 18 MO (STUDY DURATION: 18 MO), Tumor Site: Type of Lesion: HEMATOPOIETIC SYSTEM: LEUKEMIA, FORESTOMACH: PAPILLOMA, CARCINOMA", "result": "active; positive"}, {"measurement": "carcinogen call", "setting": "Species: MOUSE, Strain/Sex: DDY/MALE, Route: ORAL, 0.012, 0.06, 0.3, 1.5% IN DIET FOR 18 MO (STUDY DURATION: 18 MO), 0.012, 0.06, 0.3, 1.5% IN DIET FOR 18 MO (STUDY DURATION: 18 MO), Tumor Site: Type of Lesion: LIVER: HEPATOCELLULAR ADENOMA, HEPATOCELLULAR CARCINOMA, KIDNEY: RENAL CELL ADENOMA, RENAL CELL CARCINOMA", "result": "active; positive"}, {"measurement": "carcinogen call", "setting": "Species: MOUSE, Strain/Sex: SLC:DDY/FEMALE, Route: DERMAL, 5, 50% IN ETHANOL 2/WK FOR 79 WK (STUDY DURATION: 18 MO), 5, 50% IN ETHANOL 2/WK FOR 79 WK (STUDY DURATION: 18 MO)", "result": "inactive; negative"}, {"measurement": "carcinogen call", "setting": "Species: RAT, Strain/Sex: F344/FEMALE, Route: GAVAGE, 44, 88 MG/KG IN CORN OIL 5 D/WK FOR 103 (STUDY DURATION: 104 WK), 44, 88 MG/KG IN CORN OIL 5 D/WK FOR 103 (STUDY DURATION: 104 WK), Tumor Site: Type of Lesion: KIDNEY (RENAL TUBULE): ADENOMA", "result": "active; positive"}, {"measurement": "carcinogen call", "setting": "Species: RAT, Strain/Sex: F344/MALE, Route: GAVAGE, 44, 88 MG/KG IN CORN OIL 5 D/WK FOR 103 (STUDY DURATION: 104 WK), 44, 88 MG/KG IN CORN OIL 5 D/WK FOR 103 (STUDY DURATION: 104 WK), Tumor Site: Type of Lesion: KIDNEY (RENAL TUBULE): ADENOMA OR CARCINOMA, HEMATOPOIETIC SYSTEM: LEUKEMIA (MONONUCLEAR)", "result": "active; positive"}]}
{"smiles": "Nc1ccc2nc3ccccn3c2n1", "values": [{"measurement": "carcinogen call", "setting": "Species: MOUSE, Strain/Sex: CDF1/FEMALE, Route: ORAL, 0.05% IN DIET FOR UP TO 685 D (STUDY DURATION: 685 D), Tumor Site: Type of Lesion: LIVER: HEPATOCELLULAR ADENOMA OR CARCINOMA, BLOOD VESSELS: HEMANGIOENDOTHELIOMA OR HEMANGIOENDOTHELIAL SARCOMA", "result": "active; positive"}, {"measurement": "carcinogen call", "setting": "Species: MOUSE, Strain/Sex: CDF1/MALE, Route: ORAL, 0.05% IN DIET FOR UP TO 685 D (STUDY DURATION: 685 D), Tumor Site: Type of Lesion: LIVER: HEPATOCELLULAR ADENOMA OR CARCINOMA, BLOOD VESSELS: HEMANGIOENDOTHELIOMA OR HEMANGIOENDOTHELIAL SARCOMA", "result": "active; positive"}, {"measurement": "carcinogen call", "setting": "Species: RAT, Strain/Sex: F344/FEMALE, Route: ORAL, 500 PPM IN DIET (AV DAILY DOSE: 4.9 MG) FOR 24 MO (STUDY DURATION: 104 WK), Tumor Site: Type of Lesion: SMALL INTESTINE: ADENOMA OR ADENOCARCINOMA OR MUCINOUS CARCINOMA, LARGE INTESTINE: ADENOMA OR ADENOCARCINOMA OR MUCINOUS", "result": "active; positive"}, {"measurement": "carcinogen call", "setting": "Species: RAT, Strain/Sex: F344/MALE, Route: ORAL, 500 PPM IN DIET (AV DAILY DOSE: 7.5 MG) FOR 24 MO (STUDY DURATION: 104 WK), Tumor Site: Type of Lesion: LIVER: HEPATOCELLULAR CARCINOMA OR ANAPLASTIC HEPATOMA, SMALL INTESTINE: ADENOMA OR ADENOCARCINOMA OR MUCINOUS CARCINOMA", "result": "active; positive"}]}
{"smiles": "[O-][Cl+]O", "values": [{"measurement": "carcinogen call", "setting": "Species: RAT, Strain/Sex: F344/FEMALE, Route: ORAL, 0.03, 0.06% IN DRINKING WATER FOR 85 WK (STUDY DURATION: 85 WK), 0.03, 0.06% IN DRINKING WATER FOR 85 WK (STUDY DURATION: 85 WK)", "result": "inactive; negative"}, {"measurement": "carcinogen call", "setting": "Species: RAT, Strain/Sex: F344/MALE, Route: ORAL, 0.03, 0.06% IN DRINKING WATER FOR 85 WK (STUDY DURATION: 85 WK), 0.03, 0.06% IN DRINKING WATER FOR 85 WK (STUDY DURATION: 85 WK)", "result": "inactive; negative"}]}
{"smiles": "CN(C)c1ccc(Cc2ccc(N(C)C)cc2)cc1", "values": [{"measurement": "carcinogen call", "setting": "Species: MOUSE, Strain/Sex: B6C3F1/FEMALE, Route: ORAL, 1250, 2500 PPM IN DIET FOR 78 WK (STUDY DURATION: 91 WK), 1250, 2500 PPM IN DIET FOR 78 WK (STUDY DURATION: 91 WK), Tumor Site: Type of Lesion: LIVER: HEPATOCELLULAR ADENOMA OR CARCINOMA", "result": "active; positive"}, {"measurement": "carcinogen call", "setting": "Species: MOUSE, Strain/Sex: B6C3F1/MALE, Route: ORAL, 1250, 2500 PPM IN DIET FOR 78 WK (STUDY DURATION: 91 WK), 1250, 2500 PPM IN DIET FOR 78 WK (STUDY DURATION: 91 WK), Tumor Site: Type of Lesion: LIVER: HEPATOCELLULAR ADENOMA OR CARCINOMA", "result": "equivocal"}, {"measurement": "carcinogen call", "setting": "Species: RAT, Strain/Sex: F344/FEMALE, Route: ORAL, 0.0375, 0.075% IN DIET FOR 59 WK (STUDY DURATION: 2 YR), 0.0375, 0.075% IN DIET FOR 59 WK (STUDY DURATION: 2 YR), Tumor Site: Type of Lesion: THYROID GLAND: FOLLICULAR CARCINOMA", "result": "active; positive"}, {"measurement": "carcinogen call", "setting": "Species: RAT, Strain/Sex: F344/FEMALE, Route: ORAL, 375, 750 PPM IN DIET FOR 59 WK (STUDY DURATION: 104 WK), 375, 750 PPM IN DIET FOR 59 WK (STUDY DURATION: 104 WK), Tumor Site: Type of Lesion: THYROID GLAND: FOLLICULAR CELL ADENOMA OR CARCINOMA", "result": "active; positive"}, {"measurement": "carcinogen call", "setting": "Species: RAT, Strain/Sex: F344/MALE, Route: ORAL, 0.0375, 0.075% IN DIET FOR 59 WK (STUDY DURATION: 2 YR), 0.0375, 0.075% IN DIET FOR 59 WK (STUDY DURATION: 2 YR), Tumor Site: Type of Lesion: THYROID GLAND: FOLLICULAR CARCINOMA", "result": "active; positive"}, {"measurement": "carcinogen call", "setting": "Species: RAT, Strain/Sex: F344/MALE, Route: ORAL, 375, 750 PPM IN DIET FOR 59 WK (STUDY DURATION: 104 WK), 375, 750 PPM IN DIET FOR 59 WK (STUDY DURATION: 104 WK), Tumor Site: Type of Lesion: THYROID GLAND: FOLLICULAR CELL ADENOMA OR CARCINOMA", "result": "active; positive"}]}
